In US20090258030A1, “Materials and Methods for Improving Livestock Productivity” (priority 2006, published 2009):
Structures can show the parent of a compound that is named as a salt. Marks after values point to notes of the source that are not given here.

Experiment: Carcass composition/appearance of fattening pigs (Example 3)
Assay type: in vivo, swine
Conditions: 150 g cysteamine hydrochloride per ton of feed
Procedure: 72 piglets were divided evenly into control group and Cysteamine group. The control group was treated with basal diet while the Cysteamine group was treated with basal diet added with 150 g cysteamine hydrochloride per ton of feed. Upon reaching the market weight of 85-90 kg, five animals from each treatment were slaughtered after fasting for one day. During slaughter, the animals were stunned with a stunning gun, bled, dehaired and eviscerated. The carcass was split […] and then chilled for 24 hours prior to fabrication. The slaughter and the chilled carcass weights were recorded. The chilled carcass weight expressed as percentage of the slaughter weight represents the dressed yield. The wholesale and retail cuts of each animals were weighed and recorded. The values were expressed as the percentage of the live weight and of the chilled carcass weight.
The area of the longissimus dorsi (LD) muscle was measured on the 12th rib of the right part of the carcasses. This was done by tracing the outline of the whole LD muscle on acetate paper and the area was measured with the use of a grading method.
There were no significant interaction effects.

[1] = slaughter at market weight 85-90 kg

## NCCS [Cysteamine Hydrochloride, cysteamine hydrochloride]
  backfat vs pigs fed diet without cysteamine hydrochloride: significantly thinner
  dressing percentage, loin eye area, and lean:fat ratio vs pigs fed without cysteamine hydrochloride: no significant differences
  loin cut and lean trimmings as a percent of the live-weight vs pigs fed without cysteamine hydrochloride: significantly higher
[1]
  Dressing %: 69.012%
  Lean:Fat Ratio: 0.105
  Loin Eye Area (sq.cm): 4.850 sq.cm
Slaughter at market weight 85-90 kg, P < 0.05 vs non-cysteamine HCl
  Backfat Thickness (cm): 1.91^a cm
